Data set [1] in a line: Thermodynamic solubility. Conditions: thermodynamic from solid. The class given is physicochemical.
A short description of data set [2]: Kinetic solubility. In kind it is physicochemical. Conditions: kinetic from dmso stock.
A short description of data set [3]: Log D. Conditions: pH 7.4; pH 7,4. In kind it is physicochemical.
Data set [4] has as its target T1, mHTT (Homo sapiens, UniProt P42858).
T1 construct: host or cells: ST HDH Q111/111 mouse striatal cell line (knock-in locus)
In words: mHTT levels in striatal cells (immunocytochemistry). Conditions: for mHTT after 3 h heat shock and following 48 hours of compound treatment in comparison to untreated STHdh 111/111 / remaining activity at 10 µM: STHdh 111/111; for remaining activity at 10 µM: 3 hours heat shock, 48 hours treatment, percentage in comparison to untreated STHdh 111/111, 3B5H10 antibody, read-out: mHTT after treatment. In kind it is cell-based, mouse. How it is done: (§1) Staining - Cells were permeabilized with 0.3% Triton X-100 in 4 °C PBS (pH 7.4 from ThermoFisher) for 10 minutes. Then the cells were washed two times with 4 °C PBS. Subsequently, cells are blocked with 3% NGS (normal goat serum from Thermo Fisher) in 4 ° C PBS for 1 hour. Cells were incubated with primary antibodies in blocking buffer (PBS, 3% NGS, 0.02% NaN3) over night at 4 °C. Primary antibodies were mouse antipolyglutamine monoclonal antibody 3B5H10 (Sigma-Aldrich) at 1:250 dilution and Guinea Pig anti-MAP2 polyclonal antibody (Synaptic Systems) at 1:500 dilution. 3B5H10 binds to diffuse mHTT. Diffuse mHTT is a monomeric and small oligomeric mHTT. Diffuse mHTT is correlated to pathological parameters in Huntington's disease. Compounds that bind the mHTT will reduce the levels of diffuse mHTT detected.
Cells were washed 2 times with 4 °C PBS, and then incubated with secondary antibodies at 1:2000 dilution in blocking buffer for 1hour at room temperature. […] Cells were washed 2 times with 4 °C PBS, and then the nuclei were counterstain with DAPI (ThermoFisher) for 10 min at room temperature in the dark. Cells were washed 2 times with 4 °C PBS, and then 4 °C PBS was added to cells and then images were acquired. […] Table 11: Antibodies Used in Immunocytochemistry Studies
Fluorescence Imaging - Imaging sessions were performed on a confocal microscope system (Carl Zeiss Microscopy) equipped with a dual spinning disk unit (Yokogawa). All components of the imaging system were controlled via the ZEN 2 software suite (Carl Zeiss Microscopy). The laser lines used were 405 nm, 488 nm and 639 nm to excite DAPI or the respective fluorophores. […] Nested t test was performed to calculate the significance amongst repeated measurements using GraphPad Prism software.
as §1, with “For LC3 staining primary antibodies were mouse anti-LC3 mab (5F10) (nanoTools) at 1:500 dilution” for “3B5H10 binds to diffuse mHTT. Diffuse mHTT is a monomeric”, “Guinea Pig anti-MAP2 polyclonal antibody (Synaptic Systems) at 1:500 dilution.” for “small oligomeric mHTT. Diffuse mHTT is correlated to pathological parameters in Huntington's disease. Compounds that bind the mHTT will reduce the levels of diffuse mHTT detected.”
Cells were washed 2 times with 4 °C PBS, and then incubated with secondary antibodies at 1:2000 dilution in blocking buffer for 1hour at room temperature. […] Cells were washed 2 times with 4 °C PBS, and then the nuclei were counterstain with DAPI (ThermoFisher) for 10 min at room temperature in the dark. Cells were washed 2 times with 4 °C PBS, and then 4 °C PBS was added to cells and then images were acquired.
EC 50 value was determined with non-linear regression.

In data set [5] the target is T2, wildtype huntingtin (Mus musculus, UniProt P42859).
T2 construct: host or cells: ST HDH Q7/7 mouse striatal cell line
Briefly: Wildtype huntingtin levels (immunofluorescence). Conditions: STHdh 7/7 in comparison to non-treated STHdh 7/7. In kind it is cell-based.

Data set [6] deals with Exon1 Q46 (Homo sapiens, UniProt P42858, INS38QQQQQQQQQQQQQQQQQQQQQQQQQ). Briefly: Circular dichroism study. In kind it is binding. How it is done:
Protein samples were diluted with buffer to 7.5 µM prior to Circular Dichroism (CD) measurements. Measurements were conducted at room temperature.
Four spectra at each measurement were taken every 1 nm from 200 to 260 nm, scanning at 50 nm/min with an averaging time of 1 sec. Spectra were obtained from samples in 20 mM phosphate, pH 7.4. Ten scans were averaged for each sample spectrum
Single-wavelength readings at 222 nm were obtained. After subtraction of the Trx contribution, the α-helical content of Httex1 was estimated from its mean residue ellipticity (MREHttex1) at 222 nm. This calculation was conducted as described by Bravo-Arredondo (Bravo-Arredondo, J.M. et al., J Biol Chem. 2018 Dec 21;293(51):19613-19623).
MRE Exon-1 Q16 and Q46 (Mean Residue Ellipticity) was measured every 1 sec for 300 sec; the 301 readings for each sample were averaged and MRE Trx subtracted. The number of amino acids in each sample to experience a change in helicity was estimated using a previously developed helix-coil transition model, which gave the change in fraction of helicity (ΔfHelix) by the following equation: fHelix = (MREHttex1 −MRECoil)/(MREHelix −MRECoil) [formula] where MRE Exon1 Q26 or Q46 (MREHttex1 in the formula) describes the helix-coil transition, obtained from the difference between MRE Eon1 Q26 or Q46 at 222 nm of the fusion protein at the given temperature (in our case 37 °C) and the product of MRE Trx at 222 nm at the same temperature and the fraction of residues comprised by Trx in that particular construct, and MRECoil = 2220−53T,MREHelix =; (−44,000+250T)(1−(3)/(Nr)) [formula] given T as the temperature in °C and Nr as the number of residues.
In order to calculate an equilibrium of the two states model, percent α-helicity was calculated using the relation of MREHttex1 = 0 and -34700 (deg cm^2 dmol^-1) for 0% and 100% helicity, respectively. Table 14: Comparison between Kd, reversal of conformational changes of Exon1 Q46 and reduction of mHTT in comparison to untreated striatal neurons
The CD measurements protocol for Compound 101 was the same as outlined above except that from 206 nm - 210 nm and 220 nm - 224 nm, the step size was 0.2 nm, and the bandwidth was 1nm.

The nature of data set [7]: Microsomal stability. The class given is in vitro ADME. Particulars: humans versus mice.

In brackets after ≈: the same amount, converted by molar mass. Several values for one entry are separate records, joined by “and”; a condition that tells them apart may be missing. Equal values may be shown once.

T1 sequence (P42858 with tags, fused parts or gaps with the stated changes): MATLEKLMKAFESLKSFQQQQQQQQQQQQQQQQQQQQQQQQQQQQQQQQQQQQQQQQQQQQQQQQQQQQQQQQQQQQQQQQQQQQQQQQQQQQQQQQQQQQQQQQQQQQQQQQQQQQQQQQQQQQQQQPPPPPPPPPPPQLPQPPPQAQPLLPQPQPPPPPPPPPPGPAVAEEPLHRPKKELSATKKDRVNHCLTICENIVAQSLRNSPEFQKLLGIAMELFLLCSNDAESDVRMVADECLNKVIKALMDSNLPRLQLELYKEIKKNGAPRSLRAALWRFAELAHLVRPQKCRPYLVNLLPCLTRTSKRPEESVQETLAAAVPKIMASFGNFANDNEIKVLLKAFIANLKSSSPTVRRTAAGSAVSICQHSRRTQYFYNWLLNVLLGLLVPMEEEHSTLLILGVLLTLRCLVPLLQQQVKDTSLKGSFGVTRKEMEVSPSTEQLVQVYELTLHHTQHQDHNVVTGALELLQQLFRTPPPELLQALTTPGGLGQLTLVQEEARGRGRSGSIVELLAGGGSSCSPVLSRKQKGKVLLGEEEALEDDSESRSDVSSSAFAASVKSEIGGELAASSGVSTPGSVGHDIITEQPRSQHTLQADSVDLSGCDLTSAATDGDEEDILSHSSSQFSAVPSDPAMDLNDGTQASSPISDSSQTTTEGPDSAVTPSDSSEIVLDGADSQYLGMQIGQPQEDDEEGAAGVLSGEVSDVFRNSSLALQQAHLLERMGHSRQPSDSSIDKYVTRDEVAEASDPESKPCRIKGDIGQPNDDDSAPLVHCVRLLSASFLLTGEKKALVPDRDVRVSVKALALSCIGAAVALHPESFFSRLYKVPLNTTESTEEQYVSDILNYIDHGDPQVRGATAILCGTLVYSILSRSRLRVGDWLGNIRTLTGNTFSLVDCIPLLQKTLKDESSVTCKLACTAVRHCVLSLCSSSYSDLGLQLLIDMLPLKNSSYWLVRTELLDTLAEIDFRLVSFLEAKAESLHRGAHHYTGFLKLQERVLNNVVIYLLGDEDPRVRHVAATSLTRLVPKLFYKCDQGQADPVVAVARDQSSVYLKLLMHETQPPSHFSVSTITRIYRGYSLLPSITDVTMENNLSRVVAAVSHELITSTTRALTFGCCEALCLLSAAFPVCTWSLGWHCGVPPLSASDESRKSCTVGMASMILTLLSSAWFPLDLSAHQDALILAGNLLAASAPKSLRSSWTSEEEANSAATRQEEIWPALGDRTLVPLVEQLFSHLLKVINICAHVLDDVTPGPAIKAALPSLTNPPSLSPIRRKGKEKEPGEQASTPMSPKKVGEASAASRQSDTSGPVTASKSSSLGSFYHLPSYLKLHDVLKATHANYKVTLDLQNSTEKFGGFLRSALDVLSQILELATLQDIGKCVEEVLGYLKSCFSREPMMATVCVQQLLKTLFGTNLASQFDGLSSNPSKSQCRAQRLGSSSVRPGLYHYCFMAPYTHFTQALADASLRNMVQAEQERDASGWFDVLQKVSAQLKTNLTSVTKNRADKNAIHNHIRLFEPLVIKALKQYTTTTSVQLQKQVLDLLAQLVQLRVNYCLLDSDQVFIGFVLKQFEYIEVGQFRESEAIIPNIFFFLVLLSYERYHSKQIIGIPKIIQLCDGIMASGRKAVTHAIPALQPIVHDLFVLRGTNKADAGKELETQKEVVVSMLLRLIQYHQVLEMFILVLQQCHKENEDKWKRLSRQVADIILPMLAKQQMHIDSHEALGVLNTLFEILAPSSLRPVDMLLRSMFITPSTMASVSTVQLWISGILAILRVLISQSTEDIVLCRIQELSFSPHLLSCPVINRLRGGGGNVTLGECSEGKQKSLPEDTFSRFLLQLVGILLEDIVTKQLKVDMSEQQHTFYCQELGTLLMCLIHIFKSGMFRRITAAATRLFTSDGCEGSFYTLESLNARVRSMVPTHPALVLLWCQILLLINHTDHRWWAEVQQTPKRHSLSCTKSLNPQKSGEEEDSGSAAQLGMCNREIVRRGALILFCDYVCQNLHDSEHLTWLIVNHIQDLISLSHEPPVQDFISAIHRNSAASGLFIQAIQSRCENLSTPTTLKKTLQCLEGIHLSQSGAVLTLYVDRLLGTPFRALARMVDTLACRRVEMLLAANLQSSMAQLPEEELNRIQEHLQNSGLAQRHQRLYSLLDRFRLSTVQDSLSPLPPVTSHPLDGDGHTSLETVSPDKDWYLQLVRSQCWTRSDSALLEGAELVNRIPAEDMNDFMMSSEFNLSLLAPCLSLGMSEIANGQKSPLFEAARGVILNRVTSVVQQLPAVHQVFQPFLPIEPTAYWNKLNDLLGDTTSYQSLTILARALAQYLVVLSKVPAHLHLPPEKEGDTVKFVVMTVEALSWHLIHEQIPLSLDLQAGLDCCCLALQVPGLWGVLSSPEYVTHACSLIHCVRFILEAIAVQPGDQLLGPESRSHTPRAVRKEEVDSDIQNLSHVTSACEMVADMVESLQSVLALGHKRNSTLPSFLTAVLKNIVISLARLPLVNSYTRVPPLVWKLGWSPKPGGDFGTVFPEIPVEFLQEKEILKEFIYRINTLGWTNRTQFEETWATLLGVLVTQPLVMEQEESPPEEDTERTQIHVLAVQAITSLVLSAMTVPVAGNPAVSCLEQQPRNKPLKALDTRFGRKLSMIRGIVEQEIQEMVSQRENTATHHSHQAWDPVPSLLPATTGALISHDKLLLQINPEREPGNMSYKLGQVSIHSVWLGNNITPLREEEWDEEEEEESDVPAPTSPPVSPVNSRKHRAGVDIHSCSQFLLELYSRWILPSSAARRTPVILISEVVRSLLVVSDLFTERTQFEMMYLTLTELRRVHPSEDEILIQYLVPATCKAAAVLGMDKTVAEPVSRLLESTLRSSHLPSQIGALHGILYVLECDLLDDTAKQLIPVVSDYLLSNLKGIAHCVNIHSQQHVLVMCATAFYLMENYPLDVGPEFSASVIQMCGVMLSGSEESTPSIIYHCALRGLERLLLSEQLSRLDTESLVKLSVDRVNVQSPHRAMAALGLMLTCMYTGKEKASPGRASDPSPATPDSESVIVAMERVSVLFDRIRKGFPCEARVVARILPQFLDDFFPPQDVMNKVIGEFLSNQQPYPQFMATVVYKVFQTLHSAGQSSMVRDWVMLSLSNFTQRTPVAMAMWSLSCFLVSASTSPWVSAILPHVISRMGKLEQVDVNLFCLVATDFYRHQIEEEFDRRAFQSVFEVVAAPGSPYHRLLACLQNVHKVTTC
Chain of Exon1 Q46 (P42858 with tags, fused parts or gaps with the stated changes): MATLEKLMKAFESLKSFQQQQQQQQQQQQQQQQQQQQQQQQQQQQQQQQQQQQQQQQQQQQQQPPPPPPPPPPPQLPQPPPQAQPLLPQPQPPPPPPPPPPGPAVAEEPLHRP

`CCc1c(C)[nH]c2ccc(C(=O)NCCN(CC)CC)cc12` [Compound 4, N-(2-(diethylamino)ethyl)-3-ethyl-2-methyl-1H-indole-5-carboxamide]: the thermodynamic solubility in data set [1] was 5100 µM (≈ 1540 µg/mL). The compound also registered a solubility (kinetic) in data set [2] of 328 µM (≈ 98.9 µg/mL). Also, in data set [3], the logD worked out at 2.02. For the same compound, the “mHTT after 3 h heat shock and following 48 hours of compound treatment in comparison to untreated STHdh 111/111” value in data set [4] came out at 34%. In addition, in data set [4], the remaining activity at 10 µM was 34%. In addition, the “Diffuse mHTT reduction” value in data set [4] (STHdh 111/111 in comparison to untreated cells, p < 0.0001) is recorded as 68%. For the same compound, the wildtype huntingtin level entry in data set [5] is “not reduced”. Also, the Kd in data set [6] (Exon1 Q46) and in data set [6] (Exon1 Q46 protein) was 60 nM in each case. The “Fraction Helix fH” value turned out to be 22.4% in data set [6] (Exon1 Q46, conc. Compound 0.01 µM); 20.9% in data set [6] (Exon1 Q46, conc. Compound 0.059 µM); 21.1% in data set [6] (Exon1 Q46, conc. Compound 0.158 µM); 20.0% in data set [6] (Exon1 Q46, conc. Compound 0.647 µM); 19.5% in data set [6] (Exon1 Q46, conc. Compound 1.62 µM); 19.3% in data set [6] (Exon1 Q46, conc. Compound 4.04 µM). In addition, the “Fraction Helix fH” value in data set [6] (Exon1 Q46, conc. Compound 13.68 µM) was determined as 18.3%; in data set [6] (Exon1 Q46, conc. Compound 37.77 µM) it was 18.1%.
In data set [1], `Cc1[nH]c2ccc(C(=O)NCCN(C(C)C)C(C)C)cc2c1C` [Compound 22] had a thermodynamic solubility of 2100 µM (≈ 662 µg/mL). The compound further showed a solubility (kinetic) in data set [2] of 188 µM (≈ 59.3 µg/mL). This compound showed a logD in data set [3] of 1.21. The “microsomal stability in humans, times higher in comparison to mice” value in data set [7] is 20 times. For the same compound, in data set [4], the “mHTT after 3 h heat shock and following 48 hours of compound treatment in comparison to untreated STHdh 111/111” value is listed as 46%. Besides, the remaining activity at 10 µM in data set [4] worked out at 46%. Further, in data set [4] (STHdh 111/111 exposed to 10 mM NH4Cl), the “mHTT lowering with autophagy inhibitor” value was “blocked the mHTT lowering effects of Compound 22 completely”. Besides, the “Nuclear diffuse mHTT reduction” value in data set [4] (STHdh 111/111 in comparison to untreated cells, p = 0.02) was 32%. In addition, the wildtype huntingtin level result in data set [5] is “not reduced”. The “proportion of a predominantly α-helical state of Exon1 Q46 after treatment” value in data set [6] (2 µM) came to 21.4%. The “Reduction of the proportion of a predominantly α-helical state to wildtype levels” value in data set [6] (2 µM compound exposure) is 36.7% and 36.6%. The Kd in data set [6] (Exon1 Q46) was 700 nM; in data set [6] (Exon1 Q46 protein), 701 nM.

Source of the values: patent EP4140481A1, “PROTEIN-OLIGOMER BINDING AGENTS AND THERAPEUTIC USES THEREOF” (Galyan Bio, Inc., priority 2021, dated 2023).
